This is an account of results in patent publication US12516056B2, “Compounds for inhibition of janus kinase 1” (MANKIND PHARMA LTD., priority 2019, dated 2026).

For experiment [1], the system named is STAT5 phosphorylation by IL-2 in HT-2 cells. Description: STAT5 phosphorylation by IL-2 in HT-2 cells (HTRF). Conditions: HT2, HT-2 cells. It is filed as cell-based. A digest of the protocol: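 Readout is HTRF detection of phospho-STAT5 in lysates, corrected for signal from unstimulated cells. Before lysis, HT-2 cells starved in 10% FBS medium received compound for 30 min (0.2% DMSO final, 37 °C), followed by 50 U/ml recombinant human IL-2 for 20 min.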
In general terms: In TR-FRET formats the signal depends on donor and acceptor labels being close together.

Experiment [2] concerns collagen induced mouse arthritis model. Description: Mouse model of rheumatoid arthritis (collagen induced arthritis). In kind it is in vivo. The following applies: orally dosed, QD for 21 days; reference filgotinib. The text has this:
Rheumatoid arthritis (RA) is an autoimmune disease that can cause joint pain and damage throughout the body. Several cytokines such as IL-6 and IFN-γ activate the Janus kinase/signal transducers and activators of transcription (JAK/STAT) pathway. Inhibition of JAK/STAT pathway is considered as one of the therapeutic options for treatment of rheumatoid arthritis. Rodent models of arthritis can be used to evaluate the therapeutic potential of compounds dosed preventatively or therapeutically. These models include but are not limited to mouse or rat collagen-induced arthritis, rat adjuvant-induced arthritis, and collagen antibody-induced arthritis.
Compounds described herein are tested for JAK/STAT pathway inhibition driven efficacy in collagen induced mouse arthritis model. Compounds were orally dosed, QD for 21 days and at the end of the study, clinical symptoms, body weight and histopathology of ankle and paws were measured. Arthritis score was calculated for the compounds as well as reference standard, filgotinib.

The test system of experiment [3] is IFN-γ production in NK 92 cells by IL-12. The experiment can be described thus: IFN-γ production in NK 92 cells by IL-12 (ELISA). Conditions: NK92, IFN-γ detection from cell supernatants, read-out: Cell based IC50 (μM) NK-92/IL-12*. As for the experimental part:
NK 92 cells were cultured in medium without IL-2 for overnight. Next day, 5000 cells per well NK 92 cells were seeded in a 96 well plate. Compounds were added to cells and incubated for 1 hour. Later IL-12, 10 U/ml was added to cells and incubated for overnight. Supernatant was collected from the wells and IFN-7 secretion was measured by using human IFN-7 ELISA kit. Absorbance was measured at 450 nm in BMG FLUOstar. Background signal obtained from cells which were not activated with cytokines, was subtracted from vehicle controls and compound treated wells.
(In general: An ELISA detects its analyte on a solid surface through an enzyme-linked reagent.)

Experiment [4] concerns Imiquimod induced dermatitis in mice. The experiment can be described thus: Mouse model of Imiquimod induced psoriasis. In kind it is in vivo, Female BALB/c mice. Conditions: 3% topical, QD; for back skin thickness / cumulative psoriasis score compared to vehicle / ear thickness: IMQ induced psoriasis, mice. As for the experimental part:
Imiquimod (IMQ) induced dermatitis closely resembles human psoriasis lesions not only with regard to phenotypic and histological characteristics but also in the development of the lesions. IMQ is a ligand for toll-like receptor 7 (TLR7) and TLR8, and is a potent immune activator. […] Migration of activated dermal dendritic cells to lymph nodes in skin triggers a sequence of events leading to late phase of psoriasis. Compounds described herein are tested for JAK inhibition driven efficacy in Imiquimod induced dermatitis in mice.
Female BALB/c mice were topically dosed with 3% cream formulation containing test compounds. After four hours of test compound administration, 5% Imiquimod was applied on back skin and right ear for five days. On day 6, post dosing with test compounds, the severity of psoriasis was monitored and graded following Psoriasis Area and Severity Index (PASI). Efficacies of the compounds were evaluated based on PASI score. Redness, thickness and scaling of back skin and ear were assessed among the groups for scoring.

Another experiment has as its target T1, Recombinant TYK2 (Homo sapiens, UniProt P29597).
T1 construct: purchased Carna Biosciences
Description: JAK biochemical assay (LANCE Ultra TR-FRET), TYK2. An outline of the steps: (§1)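 Kinase reactions ran in buffer of 50 mM HEPES pH 7.5 with 1 mM EGTA, 10 mM MgCl2, 2 mM DTT and 0.01% Tween-20, using recombinant enzyme. Phosphorylated ULight substrate was detected by TR-FRET, and compound effect expressed as % inhibition against vehicle.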

The test system of experiment [5] is STAT5 phosphorylation by GMCSF in TF-1 cells. Description: JAK cellular assay: STAT5 phosphorylation by GMCSF in TF-1 cells (HTRF). It is filed as cell-based. Conditions: Homo sapiens, TF-1 cells. A digest of the protocol:
(§2)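 Phospho-STAT3 (IL-6, 30 ng/ml) and phospho-STAT5 (GMCSF, 5 ng/ml) read by HTRF in lysates after 20 min cytokine exposure, minus unstimulated-cell background. Cells were serum-starved overnight, plated at 120,000/well, given compound 30 min at 37 °C beforehand; DMSO 0.2% final.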

The subject of experiment [6] is STAT3 phosphorylation by IL-6 in TF-1 cells. Description: JAK cellular assay: STAT3 phosphorylation by IL-6 in TF-1 cells (HTRF). The following applies: Homo sapiens, TF-1, TF-1 cells. It is filed as cell-based. An outline of the steps: as §2
A further experiment concerns the target T2, Recombinant JAK2 (Homo sapiens, UniProt O60674).
T2 construct: purchased Carna Biosciences
Description: JAK biochemical assay (LANCE Ultra TR-FRET), JAK2. An outline of the steps: as §1

The mark [7] stands for this setting: IL-2 50 U/ml, pSTAT5 HTRF, read-out: Cell Based Assay (μM) HT-2/IL-2/pSTAT5.
Where [8] appears, read: IL-2 stimulation, read-out: Cell based IC50 (μM) HT-2/IL-2.
Setting [9] is: read-out: Biochemical IC50 (nM) TYK2.
The mark [10] stands for this setting: recombinant TYK2, TR-FRET, read-out: Biochemical Assay (μM) TYK2.
Setting [11] is: GM-CSF stimulation, read-out: Cell based IC50 (μM) TF-1/GM-CSF.
The mark [12] stands for this setting: IL-6 30 ng/ml, pSTAT3 HTRF, read-out: Cell Based Assay (μM) TF-1/IL-6/pSTAT3.
Where [13] appears, read: IL-6 stimulation, read-out: Cell based IC50 (μM) TF-1/IL-6.
Where [14] appears, read: read-out: Biochemical IC50 (nM) JAK2.

Like-named read-outs stand apart in the source and are kept apart here.

T2 sequence (O60674 whole entry): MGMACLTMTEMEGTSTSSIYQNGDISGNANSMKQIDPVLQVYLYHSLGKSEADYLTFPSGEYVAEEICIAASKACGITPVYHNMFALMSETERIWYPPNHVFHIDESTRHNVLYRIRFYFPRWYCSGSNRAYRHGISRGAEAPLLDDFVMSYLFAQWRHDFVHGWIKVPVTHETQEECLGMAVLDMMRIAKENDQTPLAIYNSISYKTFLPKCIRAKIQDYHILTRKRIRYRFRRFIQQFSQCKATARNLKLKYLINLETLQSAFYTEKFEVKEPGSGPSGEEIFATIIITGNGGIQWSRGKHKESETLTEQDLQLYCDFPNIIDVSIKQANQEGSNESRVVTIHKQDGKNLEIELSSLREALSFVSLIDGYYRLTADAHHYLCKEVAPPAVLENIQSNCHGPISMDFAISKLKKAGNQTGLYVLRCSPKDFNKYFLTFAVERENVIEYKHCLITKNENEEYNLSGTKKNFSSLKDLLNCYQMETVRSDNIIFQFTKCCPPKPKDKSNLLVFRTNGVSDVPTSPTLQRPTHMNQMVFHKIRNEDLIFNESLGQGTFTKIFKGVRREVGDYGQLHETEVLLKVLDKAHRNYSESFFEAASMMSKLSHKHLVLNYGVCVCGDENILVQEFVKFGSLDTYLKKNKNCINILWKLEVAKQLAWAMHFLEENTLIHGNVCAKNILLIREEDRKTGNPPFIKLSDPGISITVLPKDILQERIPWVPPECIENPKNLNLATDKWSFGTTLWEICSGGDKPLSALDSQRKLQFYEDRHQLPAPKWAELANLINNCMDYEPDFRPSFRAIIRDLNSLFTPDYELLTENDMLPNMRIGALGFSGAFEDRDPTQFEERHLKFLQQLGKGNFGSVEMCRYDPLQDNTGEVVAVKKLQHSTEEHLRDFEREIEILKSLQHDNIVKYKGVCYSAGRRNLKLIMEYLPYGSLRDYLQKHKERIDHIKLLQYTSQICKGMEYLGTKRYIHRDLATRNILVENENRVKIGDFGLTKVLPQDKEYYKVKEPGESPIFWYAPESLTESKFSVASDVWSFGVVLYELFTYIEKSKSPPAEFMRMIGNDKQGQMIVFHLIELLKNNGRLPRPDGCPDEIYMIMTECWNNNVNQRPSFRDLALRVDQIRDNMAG
T1 sequence (P29597 whole entry): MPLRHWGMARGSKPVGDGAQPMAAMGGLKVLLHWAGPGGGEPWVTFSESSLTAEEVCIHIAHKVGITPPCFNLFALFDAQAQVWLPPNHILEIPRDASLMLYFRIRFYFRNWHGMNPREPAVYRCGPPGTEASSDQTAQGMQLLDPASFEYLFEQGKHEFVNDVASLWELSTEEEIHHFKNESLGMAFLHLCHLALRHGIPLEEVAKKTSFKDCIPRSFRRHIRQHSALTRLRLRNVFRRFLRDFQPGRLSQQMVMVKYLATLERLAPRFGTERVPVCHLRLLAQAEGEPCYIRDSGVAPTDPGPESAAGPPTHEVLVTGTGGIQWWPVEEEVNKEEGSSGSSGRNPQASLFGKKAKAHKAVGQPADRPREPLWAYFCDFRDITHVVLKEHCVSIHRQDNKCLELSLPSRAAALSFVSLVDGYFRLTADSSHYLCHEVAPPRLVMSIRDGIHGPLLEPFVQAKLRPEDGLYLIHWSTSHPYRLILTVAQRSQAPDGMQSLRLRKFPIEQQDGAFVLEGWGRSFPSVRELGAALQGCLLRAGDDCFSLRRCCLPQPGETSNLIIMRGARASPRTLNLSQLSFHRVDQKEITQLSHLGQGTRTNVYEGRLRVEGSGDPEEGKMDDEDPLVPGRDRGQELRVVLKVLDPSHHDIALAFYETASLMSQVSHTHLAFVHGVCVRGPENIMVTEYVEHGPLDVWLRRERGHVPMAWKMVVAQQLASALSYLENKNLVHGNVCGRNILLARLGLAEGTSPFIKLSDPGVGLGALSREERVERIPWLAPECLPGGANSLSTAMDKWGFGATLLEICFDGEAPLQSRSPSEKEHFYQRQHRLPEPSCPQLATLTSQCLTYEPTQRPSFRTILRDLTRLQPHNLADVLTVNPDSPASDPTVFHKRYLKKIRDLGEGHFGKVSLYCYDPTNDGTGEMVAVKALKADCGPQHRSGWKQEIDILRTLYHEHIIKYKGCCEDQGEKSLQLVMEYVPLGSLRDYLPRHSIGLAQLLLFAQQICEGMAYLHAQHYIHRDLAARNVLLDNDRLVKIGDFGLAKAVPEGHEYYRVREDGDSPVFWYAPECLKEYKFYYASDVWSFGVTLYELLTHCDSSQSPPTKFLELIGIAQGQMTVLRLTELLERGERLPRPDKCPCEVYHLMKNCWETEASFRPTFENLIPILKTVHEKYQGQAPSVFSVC

For `CN1CCC(C(O)(c2ccc(-n3cc(-c4ccnc5[nH]cnc45)cn3)nc2)C(F)(F)F)CC1` (centres unmarked) [Example 1133, 1-(6-(4-(3H-imidazo[4,5-b]pyridin-7-yl)-1H-pyrazol-1-yl)pyridin-3-yl)-2,2,2-trifluoro-1-(1-methylpiperidin-4-yl)ethanol], the IC50 in experiment [1] (setting [7]) is 2.3 µM; in experiment [1] (setting [8]) it was 2.3 µM; in experiment [3], more than 10 µM; at Recombinant TYK2 (setting [9]), 850 nM; on Recombinant TYK2 (setting [10]), more than 1000 nM; in experiment [5] (setting [11]), more than 10 µM. The IC50 in experiment [5] (GMCSF 5 ng/ml, pSTAT5 HTRF, read-out: Cell Based Assay (μM) TF-1/GMCSF/pSTAT5) was more than 10 µM; in experiment [6] (setting [12]) it was 0.6 µM; in experiment [6] (setting [13]), 0.6 µM; on Recombinant JAK2 (setting [14]), 152 nM. Also, the “efficacy (arthritis score) in collagen induced mouse arthritis model” value in experiment [2] is reported as “very good efficacy”. For the same molecule, the back skin thickness entry in experiment [4] is listed as “significant decrease”. The “cumulative psoriasis score compared to vehicle” value in experiment [4] is “statistically significant decrease”. Also, the ear thickness entry in experiment [4] is “significant decrease”.

Regarding `CC(C)NC(=O)CC[C@@H](c1ccc(-n2cc(-c3ccnc4[nH]cnc34)cn2)nc1)C(F)(F)F` [Example 1215, (S)-4-(6-(4-(3H-imidazo[4,5-b]pyridin-7-yl)-1H-pyrazol-1-yl)pyridin-3-yl)-5,5,5-trifluoro-N-isopropylpentanamide], the IC50 in experiment [1] (setting [7]) was 0.75 µM; in experiment [1] (setting [8]), 0.7 µM; in experiment [3] it was more than 10 µM; on Recombinant TYK2 (setting [9]), more than 100 nM; at Recombinant TYK2 (setting [10]), more than 1000 nM; in experiment [5] (setting [11]) it was more than 10 µM. Also, the IC50 in experiment [6] (setting [12]) is 0.32 µM; in experiment [6] (setting [13]) it was 0.3 µM; on Recombinant JAK2 (setting [14]), 40 nM; at Recombinant JAK2 (recombinant JAK2, TR-FRET, read-out: Biochemical Assay (μM) JAK2), less than 100 nM. The “efficacy (arthritis score) in collagen induced mouse arthritis model” value in experiment [2] is “very good efficacy”. In addition, in experiment [4], the “efficacy compared to 1133 and reference compound filgotinib (psoriasis model)” value is on record as “better efficacy”. In addition, the back skin thickness result in experiment [4] is “significant decrease”. For the same molecule, the “cumulative psoriasis score compared to vehicle” value in experiment [4] is given as “statistically significant decrease”. For the same molecule, the ear thickness entry in experiment [4] is listed as “significant decrease”.
